The subject of one series is Caco-2. The experiment in a line: Apparent permeability across human Caco-2 cells. Type of series: ADME, cell-based. In general terms: Caco-2 monolayers are a common model of the intestinal barrier.
The nature of another series: physchem. As to conditions: buffer, pH 7.4.
Series [1] in a line: Ratio of drug level in brain to plasma in mouse at 5 mg/kg, iv after 4 hrs. Type of series: ADME, organism-based. Details: dose 5 mg/kg, route intravenous.
Series [2] in a line: Volume of distribution in mouse at 5 mg/kg, iv and 10 mg/kg, po. It counts as ADME, organism-based. As to conditions: in vivo.
Series [3] is described as follows: Drug level in mouse brain at 5 mg/kg, iv after 1 hr. Type of series: ADME, organism-based. Set-up: dose 5 mg/kg, route intravenous. As to conditions: read-out: Drug uptake.
Series [4] in a line: Cmax in mouse at 5 mg/kg, iv and 10 mg/kg, po. The note with it: in vivo. It counts as ADME, organism-based.
Series [5] is described as follows: AUC in mouse at 10 mg/kg, po. Type of series: ADME, organism-based. Set-up: dose 10 mg/kg, route oral. The note with it: plasma.
Series [6] in a line: Oral bioavailability in mouse at 10 mg/kg. As to conditions: in vivo. It counts as ADME, organism-based.
Series [7] is described as follows: Ratio of drug level in brain to plasma in mouse at 5 mg/kg, iv after 1 hr. Set-up: dose 5 mg/kg, route intravenous. Type of series: ADME, organism-based.
Series [8] can be described thus: Drug level in mouse brain at 5 mg/kg, iv after 4 hrs. Type of series: ADME, organism-based. Set-up: dose 5 mg/kg, route intravenous. The note with it: read-out: Drug uptake.
The nature of series [9]: Tmax in mouse at 5 mg/kg, iv and 10 mg/kg, po. Type of series: ADME, organism-based. As to conditions: in vivo.

Structures are written as SMILES.

For orientation: Papp means the rate of passage across a membrane or cell layer, normalised by area and donor concentration. As a reminder, the logD is lipophilicity at a set pH, counting ionised and neutral species. One may read the Kp as the ratio of the level in a tissue or fluid to that in plasma or blood. One may read the Cmax as the maximum level reached in the sampled fluid or tissue. Broadly, the AUC is concentration integrated over time. The low end stands for less exposure, the high end for more exposure. As a reminder, the bioavailability is dose-corrected exposure relative to a reference, in per cent. For orientation: Tmax means the time at which the peak concentration occurs.

Turning to `Cc1ccc(N2CCN(C(=O)[C@H](C)Cc3ccc(Cl)cc3)CC2)c([C@@H](NC(=O)CCN)C(C)C)c1`, in the series with Caco-2, the Papp is recorded as 3 ×10⁻⁶ cm/s. For the same compound, the logD in “physchem” was 2.4.
For the compound `CNCCN[C@H](c1cc(C)ccc1N1CCN(C(=O)[C@H](C)Cc2ccc(Cl)cc2F)CC1)C(C)C`, the Papp with Caco-2 was found to be 3 ×10⁻⁶ cm/s. Moreover, the logD in the series “physchem” was 2.5.
Consider `Cc1ccc(N2CCN(C(=O)[C@H](C)Cc3ccc(Cl)cc3C)CC2)c([C@@H](NC(=O)CCN(C)C)C(C)C)c1`, for which the Papp in the series with Caco-2 is on record as 16 ×10⁻⁶ cm/s. In the series “physchem”, this compound registered a logD of 4.
For `CNCCC(=O)N[C@H](c1cc(C)ccc1N1CCN(C(=O)[C@H](C)Cc2ccc(Cl)cc2)CC1)C(C)C`, the Papp with Caco-2 turned out to be 12 ×10⁻⁶ cm/s. The compound also had a logD in the series “physchem” of 2.7.
Take `CNCC(=O)N[C@H](c1cc(Cl)ccc1N1CCN(C(=O)[C@H](C)Cc2ccc(Cl)cc2OC)CC1)C(C)C`: in series [1], the Kp at 4 h was 1.3. This compound gave a Vd in [2] of 11 L/kg. The concentration at 1 h in series [3] turned out to be 334 ng/g. The same compound gave a Cmax in series [4] of 55 ng/mL. The compound also registered an AUC in [5] of 208 ng·h/mL. Further, the bioavailability in [6] was determined as 8%. Besides, in “physchem”, the log distribution coefficient (logD) is 3.5. In series [7], the Kp at 1 h was 1.3. Further, in series [8], the concentration at 4 h is 102 ng/g. In addition, the Tmax in [9] turned out to be 30 min.
With `CC(C)[C@H](NC(=O)CCN(C)C)c1cc(Cl)ccc1N1CCN(C(=O)[C@H](C)Cc2ccc(Cl)cc2)CC1`, the Papp with Caco-2 was found to be 9 ×10⁻⁶ cm/s. The concentration ratio (Kp) at 4 h in series [1] is 2.3. Besides, in series [2], the Vd came to 11 L/kg. For the same compound, in [3], the concentration at 1 h stood at 580 ng/g. Also, in series [4], the Cmax came out at 109 ng/mL. In series [5], this compound came in with an AUC of 600 ng·h/mL. In series [6], this compound came in with a bioavailability of 19%. Besides, the logD in “physchem” came out at 4. Moreover, the partition ratio (Kp) at 1 h in [7] worked out at 1.9. Also, in series [8], the concentration at 4 h was found to be 176 ng/g. For the same compound, the Tmax in [9] was 60 min.
For the compound `CNCC(=O)N[C@H](c1cccc(F)c1N1CCN(C(=O)[C@H](C)Cc2ccc(Cl)cc2OC)CC1)C(C)C`, the Papp in the series on Caco-2 came to 2 ×10⁻⁶ cm/s. Besides, the Kp at 4 h in series [1] is 1.7. For the same compound, the Vd in series [2] was found to be 29 L/kg. This compound also had a Cmax in series [4] of 114 ng/mL. This compound returned an AUC in series [5] of 374 ng·h/mL. The bioavailability in [6] was 12%. For the same compound, the logD in “physchem” stood at 3.1. For the same compound, in series [7], the Kp at 1 h is 0.5. The concentration at 4 h in [8] was 107 ng/g. Also, the time of peak concentration (Tmax) in series [9] came to 30 min.
For `COc1cc(Cl)ccc1C[C@@H](C)C(=O)N1CCN(c2ccc(Cl)cc2[C@@H](NC(=O)C2CNC2)C(C)C)CC1`, in the series on Caco-2, the Papp is 0.3 ×10⁻⁶ cm/s. Also, in series [1], the Kp at 4 h amounted to 0.4. Moreover, the Vd in series [2] was 8.2 L/kg. Besides, the concentration at 1 h in series [3] worked out at 61 ng/g. The compound further yielded a peak concentration (Cmax) in [4] of 151 ng/mL. The compound also gave an AUC in [5] of 422 ng·h/mL. Besides, the bioavailability in series [6] worked out at 5.8%. This compound also registered a logD in “physchem” of 2.3. The Kp at 1 h in series [7] was 0.1. The concentration at 4 h in [8] worked out at 39 ng/g. In series [9], the Tmax stood at 120 min.
`CC(C)[C@H](NC(=O)C1CN(C)C1)c1cc(Cl)ccc1N1CCN(C(=O)[C@H](C)Cc2ccc(Cl)cc2)CC1`: the Papp with Caco-2 is 2 ×10⁻⁶ cm/s. For the same compound, the Kp at 4 h in series [1] was 0.1. Also, in series [2], the Vd came to 3 L/kg. In addition, in series [3], the concentration at 1 h was 79 ng/g. Further, the concentration in series [4] peaked (Cmax) at 762 ng/mL. Besides, the AUC in series [5] was 9160 ng·h/mL. In series [6], this compound showed a bioavailability of 58%. Moreover, in “physchem”, the pH-dependent lipophilicity (logD) was found to be 3. For the same compound, the Kp at 1 h in series [7] stood at 0.1. In series [8], the concentration at 4 h amounted to 77 ng/g. Moreover, the Tmax in series [9] amounted to 360 min.
On to `CNCC(=O)N[C@H](c1cc(Cl)ccc1N1CCN(C(=O)[C@H](C)Cc2ccc(Cl)cc2)CC1)C(C)C`, for which, in series [1], the Kp at 4 h worked out at 1.5. In [2], the Vd was 16 L/kg. In [4], this compound yielded a Cmax of 88 ng/mL. Besides, in series [5], the AUC amounted to 232 ng·h/mL. In [6], this compound came in with a bioavailability of 13%. Besides, the logD in “physchem” is 4.3. The partition ratio (Kp) at 1 h in [7] came to 0.7. For the same compound, the concentration at 4 h in series [8] came to 62 ng/g. Also, the Tmax in [9] was determined as 30 min.

(Values after ChEMBL document CHEMBL1150275, “Pharmacological and pharmacokinetic characterization of 2-piperazine-alpha-isopropyl benzylamine derivatives as melanocortin-4 receptor antagonists” (Bioorg Med Chem, 2008).)
